# Where no end group is shown, it is not given here.
# Tested on: anti-C33 70-13 or 12A1H2 monoclonal antibodies
# Assay: Spotscan immunoreactivity of overlapping octapeptides with anti-C33 monoclonal antibodies
# Type: binding
# Details: monoclonal antibodies 100 nM; β-galactosidase anti-mouse conjugate 1/200; estimated qualitatively
# Description: The synthesis was conducted on an activated cellulose membrane according to the technique developed by Berg et al. (1989, J. Ann. Chem. Soc., 111, 8024-8026) and available from Cambridge Research Biochemicals (trade name Spotscan). This technique allows simultaneous synthesis of a large number of peptides. The escerified amino acids used in the synthesis have an α-amino group protected by an FMOC group (Nova Biochem) and side groups protected by protective groups such as, for example, trityl, t-butyl ester, or t-butyl ether. The esterified amino acids are dissolved in N-methylpyrrolidone (NMP) at the concentration of […] and 0.9 μl are deposited at the attachment sites of bromphenol blue. After 15 minutes incubation, amino acids are deposited once again, followed by a further incubation of 15 minutes. If the coupling between the two amino acids is done correctly, a color change is observed (transition from blue to yellow-green). After three washings in DMF, an acetylation step is performed by acetic anhydride. Then the terminal amino groups of the peptides undergoing synthesis are deprotected by piperidine in a 20% solution in DMF. The deposition sites are re-stained by a 1% bromophenol blue solution in DMF, washed three times with methanol, and dried. This sequence of operations constitutes one amino acid addition cycle, and this cycle is repeated until synthesis is complete. When all the amino acids have been added, the NH2 terminal group of the last amino acid is deprotected by piperidine in a 20% solution in DMF and acetylated with acetic anhydride. The protective groups of the side chain are removed by a mixture of dichloromethane/trifluoroacetic acid/triisobutylsilane (5 ml/5 ml/250 μl). The immunoreactivity of the peptides thus synthesized can then be tested, for example, by ELISA.
# After synthesis of the various octapeptides, the cellulose membrane is rinsed with methanol, washed in TBS (0.1 M Tris, pH 7.2) then incubated overnight at room temperature in saturation buffer (available from Cambridge Research Biochemicals). After several washings with TBS-T (0.1 M Tris, pH 7.2-0.05% Tween 20), the membrane is placed in contact with a solution of anti-C33 70-13 or 12A1H2 monoclonal antibodies (100 nM), and incubated for four hours at room temperature. After three washings with TBS-T, the anti-mouse-immunoglobulin conjugate labeled with β-galactosidase (available from Cambridge Research Biochemicals) is added to a 1/200 dilution and these materials are incubated for two hours at room temperature. After several washings of the membrane with 0.05% TBS-Tween and PBS, the immunoreactivity at the various spots is developed by adding a solution of substrate (5-bromo-4-chloro-3-indoyl-β-D-galactopyranoside in PBS containing magnesium chloride and potassium ferricyanide) and incubating for ten to forty minutes. The color of the spots is estimated qualitatively on a numerical scale from 0 to 5.
row,Sequence,color of the spots (immunoreactivity)
1,RLGAAGAE,disappears completely
2,DGAKFSSR,first color
3,KFSSRLGA,maximum
4,SRLGAAGA,very slight coloration
5,FSSRLGAA,maximum

# Tested on: mixture of human sera from patients infected by HCV (anti-C33 antibodies)
# Assay: Spotscan immunoreactivity of overlapping octapeptides with mixture of human sera
# Type: binding
# Details: 1/50 dilution of human sera mixture; anti-human-immunoglobulin conjugate 1/200
row,Sequence,color of the spots (immunoreactivity)
1,FSSRLGAA,maximum color

# Tested on: anti-C33 antibodies
# Assay: Spotscan point substitution tests on the Lys-Phe-Ser-Ser-Arg-Leu-Gly-Ala peptide
# Type: binding
# Details: point or double substitution of amino acids
# Description: In order to determine the degree to which the nature of the various amino acids constituting the Lys-Phe-Ser-Ser-Arg-Leu-Gly-Ala peptide can vary without reducing the antigenic properties of said peptide with respect to anti-C33 antibodies, point substitution tests were performed.
# The peptides were synthesized by the method described in the previous example, known as "Spotscan", substituting each amino acid on the peptide at a given position by the other nineteen. These peptides were then tested as described above. The size of each residue can thus be examined and the peptide grouping the best amino acids in each position can then be synthesized.
row,Sequence,response compared with the Lys-Phe-Ser-Ser-Arg-Leu-Gly-Ala peptide
1,KYSSRLGA [SEQ ID NO: 35],equivalent response
2,KFSSGLGA [SEQ ID NO: 32],better response
3,KFSSYLGA [SEQ ID NO: 34],better response
4,KHSSYLGA [SEQ ID NO: 37],advantageously
5,KFSSPLGA [SEQ ID NO: 33],better response
6,KASSYLGA [SEQ ID NO: 36],advantageously

# Source: patent publication US5985541A, “Peptide capable of being recognized by antibodies recognizing the C33 antigen of hepatitis C virus” (Bio Merieux, priority 1995, dated 1999)
